Test results: patent publication US12331024B2, “Substituted naphthyl P38alpha mitogen-activated protein kinase inhibitors” (GEN1E LIFESCIENCES INC., priority 2021, dated 2025)

Experiments:
Assay type in all cases: in vivo
[1] = Pharmacokinetics, mouse study: plasma AUCinf of metabolites after dosing Compound (4); details: female CD-1 mice, single intraperitoneal dose of 1 mg/mouse of Compound (4), metabolite AUCinf relative to Compound (4)
Experimental: (§1) The pharmacokinetics of Compounds (1)-(4) was determined in mice, rats, and monkeys.
Female CD-1 mice (n=9) received a single intraperitoneal dose of 1 mg/mouse of Compound (4). The dosing formulation was prepared prior to dose, with 2 mg/mL of Compound (4) in 4% DMSO and 96% PBS. Blood samples were collected from the mice at designated timepoints. Following collection, samples were centrifuged (2500 rpm for 10 minutes at 4° C.) and the resulting plasma was recovered and stored frozen (−60° C.).
(§2) Bioanalysis of the plasma samples was performed for Compounds (1)-(4). Mouse plasma samples were extracted by protein precipitation and analyzed by UPLC-MSMS using a Waters UPLC and API 5000® triple quadrupole mass spectrometer (AB Sciex, Toronto, Canada) with a Waters Acquity® UPLC BEH C18 column (50 mm×2.1 mm, 1.7 μm particle size). Acquisition and chromatographic peak integration were performed using Analyst® 1.7 Software. The standard curve regression and quantification of analytes in the samples was performed using the Analyst® Software.
(§3) Pharmacokinetic parameters were calculated based on the plasma concentration data for Compound (4) and the metabolites Compound (1)-(3) by non-compartmental methods using WinNonlin® Software, version 8.1 (Certara®, Inc). The area under the concentration time curve (AUCinf) was calculated for Compounds (1)-(4). The percent AUCinf (% AUCinf) for each metabolite was calculated as the ratio of the AUCinf for each respective metabolite divided by the AUCinf for Compound (4).

[2] = Pharmacokinetics, rat study: plasma AUCinf of metabolites after dosing Compound (4); details: male Sprague-Dawley rats, single intravenous bolus dose of 10 mg/kg Compound (4), metabolite AUCinf relative to Compound (4)
Experimental: as §1
Male Sprague-Dawley rats (n=3) received a single intravenous bolus dose of 10 mg/kg Compound (4). The dosing formulation was prepared by prior to dosing, with 5 mg/mL of Compound (4) in 14% sulphobutylether-β-cyclodextrin (SBECD) in deionized water (w/v). Blood samples were collected from each rat at designated timepoints. Following collection, the samples were centrifuged (2500 rpm for 10 minutes at approximately 4° C.) and the resulting plasma was recovered and stored frozen (−60° C.).
as §2, with “the” for “the plasma”, “Rat” for “Mouse”
as §3, with “calculated from” for “calculated based on”, “metabolites Compounds” for “metabolites Compound”, “AUCinf” for “AUCinf (% AUCinf)”, “for the metabolites” for “for each metabolite”

[3] = Pharmacokinetics, monkey study: plasma AUCinf of metabolites after dosing Compound (4); details: male cynomolgus monkeys, single 2 hour intravenous infusion of 5 mg/kg Compound (4), metabolite AUCinf relative to Compound (4)
Experimental: as §1
Male cynomolgus monkeys (n=3) received a single intravenous infusion over a period of 2 hours at a dose of 5 mg/kg Compound (4) (2.5 mL/kg/hour). The dosing formulation was prepared prior to dose, with 1 mg/mL of Compound (4) in 14% sulphobutylether-β-cyclodextrin (SBECD) in deionized water (w/v). Blood samples were collected from each monkey at designated timepoints. Following collection, the samples were centrifuged (2500 rpm for 10 minutes at 4° C.) and the resulting plasma was recovered and stored frozen (−60° C.).
Bioanalysis of samples was performed for Compounds (1)-(4). The monkey plasma samples were extracted by protein precipitation and analyzed by UPLC-MSMS using a Waters UPLC and API 5000® triple quadrupole mass spectrometer (AB Sciex, Toronto, Canada) with an ACE® Excel® 2 C18 column (50 mm×3.0 mm, 2 μm particle size) or a Waters Acquity® UPLC BEH C18 column (50 mm×2.1 mm, 1.7 μm). Acquisition and chromatographic peak integration were performed using Analyst® Software, version 1.6.3. The standard curve regression and quantification of analytes in the samples was performed using Watson LIMS® Software, version 7.4.1 (Thermo Fisher Scientific, Philadelphia, USA) or the Analyst® Software.
as §3, with “calculated from” for “calculated based on the”, “and its” for “and the”, “metabolites” for “metabolites Compound (1)-(3)”, “AUCinf” for “AUCinf (% AUCinf)”, “each of the metabolites” for “each metabolite”, “AUCinf of” for “AUCinf for”

| % AUCinf (100×AUCmetabolite/AUCCompound(4)) [1] | % AUCinf (100×AUCmetabolite/AUCCompound(4)) [2] | % AUCinf (100×AUCmetabolite/AUCCompound(4)) [3] | SMILES |
| --- | --- | --- | --- |
| 31% | 9% | 64% | CNc1cccc2c(S(=O)(=O)Nc3ccc(CN4CCOCC4)cc3)cccc12 [Compound (1), 5-(methylamino)-N-(4-(morpholinomethyl)phenyl)naphthalene-1-sulfonamide] |
| 10% | 48% | 132% | CNc1cccc2c(S(=O)(=O)Nc3ccc(CN4CCOCC4=O)cc3)cccc12 [Compound (2), 5-(methylamino)-N-(4-((3-oxomorpholino)methyl)phenyl)naphthalene-1-sulfonamide] |
| 9% | 11% | 7% | CN(C)c1cccc2c(S(=O)(=O)Nc3ccc(CN4CCOCC4=O)cc3)cccc12 [Compound (3), 5-(dimethylamino)-N-(4-((3-oxomorpholino)methyl)phenyl)naphthalene-1-sulfonamide] |
